Biological target: T1, Toll-like receptor 7 (Homo sapiens, UniProt Q9NYK1)
T1 sequence (Q9NYK1 whole entry): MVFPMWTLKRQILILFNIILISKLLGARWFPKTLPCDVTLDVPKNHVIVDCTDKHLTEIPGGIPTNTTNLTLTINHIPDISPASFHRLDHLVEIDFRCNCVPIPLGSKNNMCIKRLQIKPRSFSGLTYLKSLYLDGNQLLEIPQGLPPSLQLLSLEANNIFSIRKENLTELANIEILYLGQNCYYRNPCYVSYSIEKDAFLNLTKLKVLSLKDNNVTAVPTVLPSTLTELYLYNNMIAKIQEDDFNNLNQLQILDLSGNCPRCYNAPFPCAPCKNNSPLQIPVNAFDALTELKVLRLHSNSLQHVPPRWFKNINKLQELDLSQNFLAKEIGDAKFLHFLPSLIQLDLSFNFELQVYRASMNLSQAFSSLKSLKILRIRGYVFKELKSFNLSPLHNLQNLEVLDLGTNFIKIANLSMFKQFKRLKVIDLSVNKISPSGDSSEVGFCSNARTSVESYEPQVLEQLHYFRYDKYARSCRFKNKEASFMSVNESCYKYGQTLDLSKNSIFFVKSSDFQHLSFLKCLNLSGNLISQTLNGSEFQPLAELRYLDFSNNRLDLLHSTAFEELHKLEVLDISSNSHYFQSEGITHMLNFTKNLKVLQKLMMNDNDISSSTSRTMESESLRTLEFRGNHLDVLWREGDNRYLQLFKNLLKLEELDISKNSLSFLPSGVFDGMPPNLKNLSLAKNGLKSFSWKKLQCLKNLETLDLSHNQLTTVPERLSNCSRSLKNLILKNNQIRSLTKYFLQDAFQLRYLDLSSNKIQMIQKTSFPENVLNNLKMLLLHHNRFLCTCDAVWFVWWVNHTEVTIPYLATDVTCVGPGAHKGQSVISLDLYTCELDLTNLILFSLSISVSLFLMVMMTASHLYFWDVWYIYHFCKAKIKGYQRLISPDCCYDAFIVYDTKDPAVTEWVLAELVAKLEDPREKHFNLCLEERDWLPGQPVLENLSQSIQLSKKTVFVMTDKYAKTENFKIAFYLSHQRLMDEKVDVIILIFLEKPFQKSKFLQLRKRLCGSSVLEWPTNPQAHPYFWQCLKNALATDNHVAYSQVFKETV
Test: HEK293-Blue-hTLR-7 Cells Ass: A stable HEK293-Blue-hTLR-7 cell line was purchased from InvivoGen (Cat.#: hkb-htlr7, San Diego, Calif., USA). These cells were designed for studying the stimulation of human TLR7 by monitoring the activation of NF-κB. A SEAP (secreted embryonic alkaline phosphatase) reporter gene was placed under the control of the IFN-β[…] minimal promoter fused to five NF-κB and AP-1-binding sites. The SEAP was induced by activating NF-κB and AP-1 via stimulating HEK-Blue hTLR7 cells with TLR7 ligands. Therefore the reporter expression was regulated by the NF-κB promoter upon stimulation of human TLR7 for 20 hours. The cell culture supernatant SEAP reporter activity was determined using QUANTI-Blue kit (Cat.#: rep-qb1, Invivogen, San Diego, Calif., USA) at a wavelength of 640 nm, a detection medium that turns purple or blue in the presence of alkaline phosphatase.HEK293-Blue-hTLR7 cells were incubated at a density of 250,000 ~ 450,000 cells/mL in a volume of 180 μL in a 96-well plate in Dulbecco's Modified Eagle's medium (DMEM) containing 4.5 g/L glucose, 50 U/mL penicillin, 50 […], 100 […], 2 mM L-glutamine, 10% (v/v) heat-inactivated fetal bovine serum for 24 h. […]

Molecule `CCC(O)[C@@H]1C[C@@H](OC(C)=O)[C@H](n2c(=O)sc3c(=O)[nH]c(N)nc32)O1` (single isomer, unassigned) has an EC50 of 48 µM.

Source: ChEMBL document CHEMBL5725638, “3-substituted 5-amino-6H-thiazolo[4,5-d]pyrimidine-2,7-dione compounds for the treatment and prophylaxis of virus infection” (2018)
